Data published in the NIST ThermoML archive (doi:10.1021/acs.jced.7b00221).

Test: xn = mol fraction of the nth substance listed
Conditions: 100 kPa, Liquid; for viscosity: Cone and plate viscometry; for mass density: Vibrating tube method

CCCCCCCC[P+](CC)(CC)CC.O=[N+]([O-])c1cn[n-]c1 [triethyloctylphosphonium 4-nitropyrazolide] + CCCCCC[n+]1ccn(C)c1.O=S(=O)([N-]S(=O)(=O)C(F)(F)F)C(F)(F)F
Conditions	mass density [kg/m3]	viscosity [mPa·s]
278.15 K, x1 = 0.126	–	267
278.15 K, x1 = 0.25	–	358
278.15 K, x1 = 0.499	–	680
278.15 K, x1 = 0.75	–	1046
278.15 K, x1 = 0.898	–	1242
283.15 K, x1 = 0.126	1340	191
283.15 K, x1 = 0.25	1296.5	251
283.15 K, x1 = 0.499	1209.6	456
283.15 K, x1 = 0.75	1124.3	682
283.15 K, x1 = 0.898	1074.4	804
283.15 K, x1 = 1	1040.7	–
288.15 K, x1 = 0.126	1335.5	140
288.15 K, x1 = 0.25	1292.3	180
288.15 K, x1 = 0.499	1205.8	314
288.15 K, x1 = 0.75	1120.9	457
288.15 K, x1 = 0.898	1071.2	535
288.15 K, x1 = 1	1037.7	–
293.15 K, x1 = 0.126	1331.1	106
293.15 K, x1 = 0.25	1288.2	133
293.15 K, x1 = 0.499	1201.9	223
293.15 K, x1 = 0.75	1117.5	317
293.15 K, x1 = 0.898	1068	369
293.15 K, x1 = 1	1034.6	–
295.15 K, x1 = 0.126	1329.4	–
295.15 K, x1 = 0.25	1286.5	–
295.15 K, x1 = 0.499	1200.4	–
295.15 K, x1 = 0.75	1116.1	–
295.15 K, x1 = 0.898	1066.8	–
295.15 K, x1 = 1	1033.4	–
298.15 K, x1 = 0.126	1326.7	82
298.15 K, x1 = 0.25	1284.1	102
298.15 K, x1 = 0.499	1198.2	164
298.15 K, x1 = 0.75	1114.1	227
298.15 K, x1 = 0.898	1064.8	263
298.15 K, x1 = 1	1031.5	–
303.15 K, x1 = 0.126	1322.4	66
303.15 K, x1 = 0.25	1280	79
303.15 K, x1 = 0.499	1194.5	124
303.15 K, x1 = 0.75	1110.7	168
303.15 K, x1 = 0.898	1061.7	192
303.15 K, x1 = 1	1028.5	–
308.15 K, x1 = 0.126	1318.1	53
308.15 K, x1 = 0.25	1275.9	63
308.15 K, x1 = 0.499	1190.9	96
308.15 K, x1 = 0.75	1107.5	127
308.15 K, x1 = 0.898	1058.6	145
308.15 K, x1 = 1	1025.5	–
313.15 K, x1 = 0.126	1313.8	–
313.15 K, x1 = 0.25	1271.8	52
313.15 K, x1 = 0.499	1187.2	73
313.15 K, x1 = 0.75	1104.2	99
313.15 K, x1 = 0.898	1055.5	110
313.15 K, x1 = 1	1022.6	–
318.15 K, x1 = 0.126	1309.6	–
318.15 K, x1 = 0.25	1267.7	–
318.15 K, x1 = 0.499	1183.5	59
318.15 K, x1 = 0.75	1100.9	77
318.15 K, x1 = 0.898	1052.5	83
318.15 K, x1 = 1	1019.6	–
323.15 K, x1 = 0.126	1305.4	–
323.15 K, x1 = 0.25	1263.7	–
323.15 K, x1 = 0.499	1179.9	–
323.15 K, x1 = 0.75	1097.6	62
323.15 K, x1 = 0.898	1049.4	67
323.15 K, x1 = 1	1016.7	–
328.15 K, x1 = 0.126	1301.2	–
328.15 K, x1 = 0.25	1259.6	–
328.15 K, x1 = 0.499	1176.2	–
328.15 K, x1 = 0.75	1094.3	–
328.15 K, x1 = 0.898	1046.3	–
328.15 K, x1 = 1	1013.8	–
333.15 K, x1 = 0.126	1297	–
333.15 K, x1 = 0.25	1255.5	–
333.15 K, x1 = 0.499	1172.6	–
333.15 K, x1 = 0.75	1091.1	–
333.15 K, x1 = 0.898	1043.3	–
333.15 K, x1 = 1	1010.8	–
338.15 K, x1 = 0.126	1292.8	–
338.15 K, x1 = 0.25	1251.5	–
338.15 K, x1 = 0.499	1169	–
338.15 K, x1 = 0.75	1087.8	–
338.15 K, x1 = 0.898	1040.2	–
338.15 K, x1 = 1	1007.9	–
343.15 K, x1 = 0.126	1288.7	–
343.15 K, x1 = 0.25	1247.5	–
343.15 K, x1 = 0.499	1165.3	–
343.15 K, x1 = 0.75	1084.6	–
343.15 K, x1 = 0.898	1037.2	–
343.15 K, x1 = 1	1005	–
348.15 K, x1 = 0.126	1284.5	–
348.15 K, x1 = 0.25	1243.5	–
348.15 K, x1 = 0.499	1161.7	–
348.15 K, x1 = 0.75	1081.3	–
348.15 K, x1 = 0.898	1034.1	–
348.15 K, x1 = 1	1002.1	–
353.15 K, x1 = 0.126	1280.3	–
353.15 K, x1 = 0.25	1239.5	–
353.15 K, x1 = 0.499	1158.1	–
353.15 K, x1 = 0.75	1078.1	–
353.15 K, x1 = 0.898	1031.1	–
353.15 K, x1 = 1	999.2	–
